Laboratory results taken from ChEMBL document CHEMBL5647700, “Crystal structure of an angiogenesis inhibitor bound to the FGF receptor tyrosine kinase domain” (EMBO J, 1998).
pIC50: −log10 of the molar value.

Experiments:
[1] = Inhibition of PKCalpha/beta/gamma isotype mixtures (unknown origin) in presence of ATP; set-up: species or system Homo sapiens
[2] = Inhibition of PDGFR cytoplasmic domain (unknown origin) in presence of ATP; set-up: species or system Homo sapiens
Mus musculus [3] = assay: Inhibition of FGF-induced neovascularization in Swiss Webster mouse angiogenesis model at 1 mg/kg, ip starting 3 days prior to or on the day of pellet implantation and then daily until day 5 post-implantation by Corneal neovascularization assay; type: functional; conditions: 192 h, time 8 day
[4] = Toxicity in bFGF-induced Swiss Webster mouse angiogenesis model at 1 mg/kg, ip starting 3 days prior to or on the day of pellet implantation and then daily until day 5 post-implantation by Corneal neovascularization assay; type: organism-based; conditions: in vivo, 192 h, time 8 day
Mus musculus [5] = assay: Inhibition of VEGF-induced neovascularization in Swiss Webster mouse angiogenesis model at 2 mg/kg, ip starting 3 days prior to or on the day of pellet implantation and then daily until day 5 post-implantation by Corneal neovascularization assay; type: functional; conditions: 192 h, time 8 day
[6] = Inhibition of VEGFR2 (unknown origin) expressed in mouse NIH/3T3 cells assessed as reduction in aFGF and heparin-induced autophosphorylation incubated for 5 mins before stimulation for 5 mins with aFGF and heparin by SDS-PAGE and immunoblot method; type: cell-based; conditions: NIH3T3
[7] = target: Fibroblast growth factor receptor 1 (Mus musculus, UniProt P16092); assay: Inhibition of FGFR1 autophosphorylation in mouse NIH/3T3 cells assessed as reduction in aFGF and heparin-induced autophosphorylation incubated for 5 mins before stimulation for 5 mins with aFGF and heparin by SDS-PAGE and immunoblot method; type: cell-based
Fibroblast growth factor receptor 1, sequence (P16092 whole entry): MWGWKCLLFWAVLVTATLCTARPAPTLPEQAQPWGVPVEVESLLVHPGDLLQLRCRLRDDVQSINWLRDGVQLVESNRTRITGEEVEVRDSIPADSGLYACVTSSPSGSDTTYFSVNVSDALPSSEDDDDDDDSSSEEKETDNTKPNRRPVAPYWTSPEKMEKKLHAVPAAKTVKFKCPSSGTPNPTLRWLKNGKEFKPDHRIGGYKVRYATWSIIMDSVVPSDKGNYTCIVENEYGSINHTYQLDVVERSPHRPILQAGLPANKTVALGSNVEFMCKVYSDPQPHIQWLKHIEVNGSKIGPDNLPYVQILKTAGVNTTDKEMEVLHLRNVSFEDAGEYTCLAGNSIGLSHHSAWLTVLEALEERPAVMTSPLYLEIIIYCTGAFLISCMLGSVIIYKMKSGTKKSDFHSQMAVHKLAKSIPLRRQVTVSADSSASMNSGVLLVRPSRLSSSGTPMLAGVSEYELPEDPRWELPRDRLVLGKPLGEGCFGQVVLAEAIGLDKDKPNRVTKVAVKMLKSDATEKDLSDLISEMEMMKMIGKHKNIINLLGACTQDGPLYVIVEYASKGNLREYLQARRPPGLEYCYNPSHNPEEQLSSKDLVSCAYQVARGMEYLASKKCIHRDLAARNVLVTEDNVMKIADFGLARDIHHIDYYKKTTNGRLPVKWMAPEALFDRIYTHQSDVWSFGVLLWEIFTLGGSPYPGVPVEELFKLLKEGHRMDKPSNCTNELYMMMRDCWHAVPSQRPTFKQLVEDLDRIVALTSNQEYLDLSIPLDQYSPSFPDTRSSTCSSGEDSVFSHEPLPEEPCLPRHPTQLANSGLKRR

[8] = target: Dual specificity mitogen-activated protein kinase kinase; MEK1/2 (Homo sapiens, UniProt P36507+Q02750); assay: Inhibition of MEK (unknown origin) in presence of ATP; type: protein assay
[9] = target: Proto-oncogene tyrosine-protein kinase Src (Homo sapiens, UniProt P12931); assay: Inhibition of c-SRC (unknown origin) in presence of ATP
Proto-oncogene tyrosine-protein kinase Src, sequence (P12931 2-536 limits assumed): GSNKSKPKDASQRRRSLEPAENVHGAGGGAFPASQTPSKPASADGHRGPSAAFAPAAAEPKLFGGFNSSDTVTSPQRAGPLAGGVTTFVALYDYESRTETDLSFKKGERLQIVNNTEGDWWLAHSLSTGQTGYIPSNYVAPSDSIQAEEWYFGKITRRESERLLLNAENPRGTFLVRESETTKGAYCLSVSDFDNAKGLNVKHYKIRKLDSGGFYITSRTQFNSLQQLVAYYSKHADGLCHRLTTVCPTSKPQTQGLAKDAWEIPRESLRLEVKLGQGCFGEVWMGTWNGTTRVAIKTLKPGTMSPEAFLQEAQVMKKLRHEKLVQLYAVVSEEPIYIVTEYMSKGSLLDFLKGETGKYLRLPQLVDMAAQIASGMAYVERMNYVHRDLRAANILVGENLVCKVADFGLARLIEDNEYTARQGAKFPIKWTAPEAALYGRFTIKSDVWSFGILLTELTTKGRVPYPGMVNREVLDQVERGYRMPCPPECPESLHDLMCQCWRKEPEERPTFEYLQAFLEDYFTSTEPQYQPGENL

pIC50 [1]: < 4.30
pIC50 [2]: 4.75
pIC50 [6]: 7.00
pIC50 [7]: 9.00
IC50 [8]: > 50 µM
pIC50 [9]: 4.70
Structure (SMILES): CCN(CC)CCCCNc1ncc2cc(-c3cc(OC)cc(OC)c3)c(NC(=O)NC(C)(C)C)nc2n1 [PD-173074]
inhibition in vivo at 1 mg/kg (Mus musculus [3]): 86%
Activity [4]: Non-Toxic
inhibition in vivo at 2 mg/kg (Mus musculus [5]): 81%
